Laboratory results published in US4990499A, “Anti-herpes simplex virus activity of 5-alkoxymethyl-2'-deoxycytidimes and their 5-monophosphates” (priority 1989, dated 1991).

Legend:
Format in all cases: cell-based
[1] = system: Deoxynucleoside Triphosphate (dNTP) Pools in Uninfected Vero Cells; assay: Deoxynucleoside triphosphate (dNTP) pools in uninfected (mock-infected) Vero cells; conditions: Table 7, uninfected Vero cells, treatment 7 hours, ± S.E.
Summary of the method: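 Vero cells were mock-infected for 1 h, then treated with MMdCyd, H4 dUrd, both together, dGUO ± H4 dUrd, or N-methyl-MMdCyd, with untreated cells as control. dNTP pools were measured, and values are means of at least two assays of triplicate cell cultures.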

[2] = Inhibition of proliferation (MTC), Raji cells; conditions: human, highest concentration tested
Protocol: Inhibitory effects of MMdCyd on the proliferation of murine and human tumor cells was also investigated. MTC for MMdCyd was greater than 400 μg/ml (highest concentration tested) against Raji, MOLT/4F, MT4, CEM and H-9 (human) and L1210 (murine Leukemia) cells.

[3] = system: Herpes simplex virus type 1 (HSV-1); assay: Antiviral activity against HSV-1, viral plaque reduction (ED50)

## COCc1cn([C@H]2C[C@H](O)[C@@H](CO)O2)c(=O)nc1N [MMdCyd, 5-methoxymethyl-2'-deoxycytidine]
[1]
  dATP pool: 8.3 ± 0.32 .rho.moles/10^6 cells
  dCTP pool: 14.2 ± 1.30 .rho.moles/10^6 cells
  dGTP pool: 52 ± 1.84 .rho.moles/10^6 cells
  dTTP pool: 44 ± 1.67 .rho.moles/10^6 cells
[2]
  MCC: > 400 µg/mL
[3]; HSV-1 76, HEP-2, 50 PFU
  EC50: 22 µM
[3]; HSV-1 (strain cell empty, under NAH), RK-13, 50 PFU
  EC50: 5 µM
[3]; HSV-1 KOS, Vero, 20 PFU, deaminase inhibitor 125 μg/ml, added immediately after infection
  EC50: 12 to 17 µM
